The structures appear in SMILES notation. Bounds are passed on as bounds.

The target of one experiment is T1, TLR8 (Homo sapiens, UniProt Q9NR97).
T1 construct: host or cells: HEK293 (HEK-BLUE-hTLR8)
T1 sequence (Q9NR97 27-1041): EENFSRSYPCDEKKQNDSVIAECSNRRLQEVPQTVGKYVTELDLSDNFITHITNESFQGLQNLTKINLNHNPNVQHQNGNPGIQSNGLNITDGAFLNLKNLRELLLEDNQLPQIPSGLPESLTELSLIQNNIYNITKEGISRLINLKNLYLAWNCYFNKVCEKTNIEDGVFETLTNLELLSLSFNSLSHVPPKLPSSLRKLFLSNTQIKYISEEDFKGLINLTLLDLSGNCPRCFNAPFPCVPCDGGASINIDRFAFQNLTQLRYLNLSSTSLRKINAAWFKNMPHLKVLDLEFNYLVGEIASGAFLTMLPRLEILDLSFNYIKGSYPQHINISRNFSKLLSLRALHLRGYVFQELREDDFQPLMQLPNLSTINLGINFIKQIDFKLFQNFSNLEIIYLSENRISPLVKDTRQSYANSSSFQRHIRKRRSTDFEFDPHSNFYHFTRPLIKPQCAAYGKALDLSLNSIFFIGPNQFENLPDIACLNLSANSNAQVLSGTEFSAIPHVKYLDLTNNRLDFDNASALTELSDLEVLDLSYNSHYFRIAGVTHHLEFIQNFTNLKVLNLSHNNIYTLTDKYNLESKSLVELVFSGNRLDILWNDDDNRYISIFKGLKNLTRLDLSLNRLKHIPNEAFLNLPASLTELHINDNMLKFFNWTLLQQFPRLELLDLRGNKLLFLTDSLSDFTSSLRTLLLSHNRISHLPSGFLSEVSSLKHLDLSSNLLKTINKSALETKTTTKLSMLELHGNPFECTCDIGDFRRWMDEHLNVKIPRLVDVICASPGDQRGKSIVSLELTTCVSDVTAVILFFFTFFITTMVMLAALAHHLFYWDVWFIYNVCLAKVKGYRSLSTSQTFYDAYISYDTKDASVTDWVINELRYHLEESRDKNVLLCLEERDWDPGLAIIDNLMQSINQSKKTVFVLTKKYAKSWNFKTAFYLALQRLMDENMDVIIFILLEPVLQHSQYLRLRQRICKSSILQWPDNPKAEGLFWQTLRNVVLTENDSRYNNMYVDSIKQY
Description: TLR8 cell based assay (HEK-BLUE-hTLR8, SEAP reporter linked to NF-κB activation). Conditions: HEK-BLUE-hTLR8 cells. A digest of the protocol: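 HEK-BLUE-hTLR8 cells (40,000/well) exposed 24 h at 37° C, 5% CO2 to compound, 10 points from 0.5 nM to 15 μM, 0.5% DMSO. Supernatant SEAP read with QUANTI-Blue (1.5 h, 37° C) at OD 650 nm; activation % normalized to DMSO and TLR8 agonist control, EC50 fitted.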

The target in the next experiment is T2, TLR7 (Homo sapiens, UniProt Q9NYK1).
T2 construct: host or cells: HEK293 (HEK-BLUE-hTLR7)
T2 sequence (Q9NYK1 27-1049): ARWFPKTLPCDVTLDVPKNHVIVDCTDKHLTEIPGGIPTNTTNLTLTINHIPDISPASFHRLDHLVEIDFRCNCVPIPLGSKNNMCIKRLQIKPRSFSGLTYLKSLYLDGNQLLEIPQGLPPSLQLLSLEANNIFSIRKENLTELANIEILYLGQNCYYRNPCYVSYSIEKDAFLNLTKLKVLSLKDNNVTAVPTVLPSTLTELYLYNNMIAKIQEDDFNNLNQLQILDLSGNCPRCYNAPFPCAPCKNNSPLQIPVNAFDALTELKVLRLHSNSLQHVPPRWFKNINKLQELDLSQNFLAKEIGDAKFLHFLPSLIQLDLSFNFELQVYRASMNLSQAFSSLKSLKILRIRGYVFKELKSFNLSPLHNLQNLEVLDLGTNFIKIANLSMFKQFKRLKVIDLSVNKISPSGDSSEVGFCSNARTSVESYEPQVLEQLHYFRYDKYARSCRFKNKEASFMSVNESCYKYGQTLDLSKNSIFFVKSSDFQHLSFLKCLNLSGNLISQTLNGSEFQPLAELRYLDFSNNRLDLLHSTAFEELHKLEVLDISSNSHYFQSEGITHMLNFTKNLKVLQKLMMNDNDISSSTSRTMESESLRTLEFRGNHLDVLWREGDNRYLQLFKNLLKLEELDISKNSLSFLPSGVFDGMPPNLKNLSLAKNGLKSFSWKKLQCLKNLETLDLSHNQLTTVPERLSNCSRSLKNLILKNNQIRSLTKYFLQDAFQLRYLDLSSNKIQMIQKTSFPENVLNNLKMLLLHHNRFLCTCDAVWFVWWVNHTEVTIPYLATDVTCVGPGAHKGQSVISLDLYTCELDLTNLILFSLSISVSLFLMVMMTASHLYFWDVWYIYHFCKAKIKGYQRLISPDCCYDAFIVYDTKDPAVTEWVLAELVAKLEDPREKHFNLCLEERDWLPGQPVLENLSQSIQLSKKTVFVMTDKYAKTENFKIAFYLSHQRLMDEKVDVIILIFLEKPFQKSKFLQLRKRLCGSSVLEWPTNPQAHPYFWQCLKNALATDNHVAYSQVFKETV
Description: TLR7 cell based assay (HEK-BLUE-hTLR7, SEAP reporter linked to NF-κB activation). Conditions: HEK-BLUE-hTLR7 cells, 24 hours treatment, SEAP/QUANTI-Blue readout. The procedure:
In this assay, the bioactivity of compound of formula (I) was measured using a cell based assay. The assay was performed in human embryonic kidney cells (HEK293) expressing TLR7 or other TLR family members such as TLR4, and TLR9 (for selectivity screens). The activity of specific TLR agonists was assessed using the secretory embryonic alkaline phosphatase (SEAP) reporter gene that is linked to NF-κB activation in response to TLR stimulation. The SEAP activity was measured using the Quanti-Blue substrate (InvivoGen) after TLR agonist treatment.
The detailed experimental method is as follow:
HEK-BLUE-hTLR7 cell line was purchased from InvivoGen. The cells were cultured in Dulbecco's Modified Eagle's Media containing 4.5 g/L […] (Sigma-Aldrich) and 10% FBS. The cells were cultured at 37° C., 95% humidity and 5% CO2.
[…] A known TLR8 agonist was added as positive control and 1 μl of DMSO was added as negative control.
The cells were prepared as follows. The cells were removed from the incubator and growth medium was discarded. The cells were gently rinsed with pre-warmed 10 ml PBS for a T-150 flask. 12 ml pre-warmed growth medium was added, and the cells were detached by tapping the flask. Cell clumps were dissociated by gently pipetting up and down. The cells were counted. Single cell suspension was prepared at 200,000 cells per ml in growth medium and 200 μl of the cell suspension (40,000 cells per well) were immediately added to each well of the plate. The final DMSO concentration of each well was 0.5%.
The cells were cultured and treated with the compounds at 37° C., 5% CO2 for 24 hours.
20 μL of the supernatant of each well were added to 180 μL of QUANTI-Blue, and the plates were incubated at 37° C. for 1.5 hour. Optical density was measured using a spectrophotometer at 650 nm (OD data). Activivation was calculated by using the equation below: Activivation %=(Compound OD mean value−DMSO OD mean value)/(positive control OD mean value−DMSO OD mean value)×100
The data were analyzed using the GraphPad to get EC50 values and fitting dose response curves of the compounds.

Where [1] appears, read: 24 h treatment, SEAP/QUANTI-Blue readout.

For `CCCN(CCC)C(=O)C1=Cc2ccc(-c3ccc4c(=O)n(Cc5ccn(C)n5)ccc4c3)cc2N=C(N)C1` [Compound 1-2-35], the EC50 (in general, the midpoint of the concentration-response curve) on TLR8 (setting [1]) was less than 0.1 µM; at TLR7, more than 50 µM.

Consider `CCCN(CCC)C(=O)C1=Cc2ccc(-c3ccc4c(=O)n(Cc5nncn5C)ccc4c3)cc2N=C(N)C1` [Compound 1-2-36], for which the EC50 is less than 0.1 µM on TLR8 (setting [1]) and 10 to 50 µM at TLR7.

As for `CCCN(CCC)C(=O)C1=Cc2ccc(-c3ccc4c(=O)n(Cc5nnnn5C)ccc4c3)cc2N=C(N)C1` [Compound 1-2-40], the EC50 on TLR8 (setting [1]) was less than 0.1 µM; on TLR8 (bound stated), less than 0.01 µM; at TLR7 it was more than 50 µM.

Consider `CCCN(CCC)C(=O)C1=Cc2ccc(-c3ccc4c(=O)n(CCP(=O)(OCC)OCC)ccc4c3)cc2N=C(N)C1` [Compound 1-2-43], for which the values for the EC50 on TLR8 (setting [1]) and on TLR7 were 0.1 to 1 µM and more than 50 µM, respectively.

With `CCCN(CCC)C(=O)C1=Cc2ccc(-c3ccc4c(=O)n(CCOP(=O)(OC)OC)ccc4c3)cc2N=C(N)C1` [Compound 1-2-45], the EC50 on TLR8 (setting [1]) was less than 0.1 µM; on TLR7 it was 10 to 50 µM.

As for `CCCN(CCC)C(=O)C1=Cc2ccc(-c3ccc4c(c3)CN(CCO)C4=O)cc2N=C(N)C1` [Compound 1-3-2], the EC50 on TLR8 (setting [1]) is less than 0.1 µM; on TLR7 it was more than 50 µM.

On to `CCCN(CCC)C(=O)C1=Cc2ccc(-c3ccc4c(c3)CCN(CC(C)(C)O)C4=O)cc2N=C(N)C1` [Compound 1-4-2], for which the EC50 on TLR8 (setting [1]) is less than 0.1 µM; on TLR7, more than 50 µM.

Regarding `CCCN(CCC)C(=O)C1=Cc2ccc(-c3ccc4c(c3)CCN(CCO)C4=O)cc2N=C(N)C1` [Compound 1-4-10], the EC50 at TLR8 (setting [1]) was 0.1 to 1 µM; at TLR7 it was more than 50 µM.

In the case of `CCCN(CCC)C(=O)C1=Cc2ccc(-c3ccc4c(=O)n(CCS(C)(=O)=O)cnc4c3)cc2N=C(N)C1` [Compound 1-7-2], the EC50 at TLR8 (setting [1]) is 0.1 to 1 µM; at TLR7, more than 50 µM.

With `CCCN(CCC)C(=O)C1=Cc2ccc(-c3ccc4c(=O)n(CCO)cnc4c3)cc2N=C(N)C1` [Compound 1-7-4], the concentration giving a half-maximal response (EC50) on TLR8 (setting [1]) was less than 0.1 µM; at TLR7, more than 50 µM.

For `CCCN(CCC)C(=O)C1=Cc2ccc(-c3ccc4c(=O)n(CC(N)=O)ncc4c3)cc2N=C(N)C1` [Compound 1-8-1], the EC50 on TLR8 (setting [1]) was less than 0.1 µM; on TLR7, more than 50 µM.

On to `CCCN(CCC)C(=O)C1=Cc2ccc(-c3ccc4c(=O)n(CC(=O)NC)ncc4c3)cc2N=C(N)C1` [Compound 1-8-2], for which the concentration giving a half-maximal response (EC50) on TLR8 (setting [1]) was less than 0.1 µM; on TLR7 it was more than 50 µM.

As to `CCCN(CCC)C(=O)C1=Cc2ccc(-c3ccc4c(=O)n(CCO)ncc4c3)cc2N=C(N)C1` [Compound 1-8-3], the EC50 at TLR8 (setting [1]) was less than 0.1 µM; at TLR7, more than 50 µM.

Turning to `CCCN(CCC)C(=O)C1=Cc2ccc(-c3ccc4c(=O)n(CC(C)(C)O)ncc4c3)cc2N=C(N)C1` [Compound 1-8-4], the figures for the EC50 at TLR8 (setting [1]) and at TLR7 were less than 0.1 µM and more than 50 µM, respectively.

`CCCN(CCC)C(=O)C1=Cc2ccc(-c3ccc4c(=O)n(CCS(C)(=O)=O)ncc4c3)cc2N=C(N)C1` [Compound 1-8-5]: the EC50 was less than 0.1 µM at TLR8 (setting [1]), less than 0.01 µM on TLR8 (bound stated) and more than 50 µM at TLR7.

In the case of `CCCN(CCC)C(=O)C1=Cc2ccc(-c3ccc4c(=O)n(CCS(=O)(=O)CC)ncc4c3)cc2N=C(N)C1` [Compound 1-8-12], the concentration giving a half-maximal response (EC50) on TLR8 (setting [1]) was less than 0.1 µM; at TLR7, 10 to 50 µM.

Turning to `CCCN(CCC)C(=O)C1=Cc2ccc(-c3ccc4c(=O)n(Cc5ncco5)ncc4c3)cc2N=C(N)C1` [Compound 1-8-15], the EC50 on TLR8 (setting [1]) was less than 0.1 µM; on TLR7, 10 to 50 µM.

Take `CCCN(CCC)C(=O)C1=Cc2ccc(-c3ccc4c(=O)n(CCO)c(=O)n(C)c4c3)cc2N=C(N)C1` [Compound 1-9-1]: the values for the EC50 at TLR8 (setting [1]) and on TLR7 were less than 0.1 µM and more than 50 µM, respectively.

`CCCN(CCC)C(=O)C1=Cc2ccc(-c3ccc4c(=O)n(CC(=O)NC)c(=O)n(C)c4c3)cc2N=C(N)C1` [Compound 1-9-2]: the EC50 is less than 0.1 µM at TLR8 (setting [1]) and more than 50 µM at TLR7.

Take `CCCN(CCC)C(=O)C1=Cc2ccc(-c3ccc4c(=O)n(CCS(C)(=O)=O)c(=O)n(C)c4c3)cc2N=C(N)C1` [Compound 1-9-4]: the values for the 50% effective concentration (EC50) on TLR8 (setting [1]) and at TLR7 were 0.1 to 1 µM and more than 50 µM, respectively.

Turning to `CCCN(CCC)C(=O)C1=Cc2c(F)cc(-c3ccc4c(=O)n(CC(N)=O)ccc4c3)cc2N=C(N)C1` [Compound 1-10-1], the EC50 at TLR8 (setting [1]) was less than 0.1 µM; at TLR7, more than 50 µM.

As to `CCCN(CCC)C(=O)C1=Cc2c(F)cc(-c3ccc4c(=O)n(CC(=O)N(C)C)ccc4c3)cc2N=C(N)C1` [Compound 1-10-9], the EC50 at TLR8 (setting [1]) was less than 0.1 µM; at TLR7 it was 1 to 10 µM.

On to `CCCN(CCC)C(=O)C1=Cc2cc(F)c(-c3ccc4c(=O)n(CC(N)=O)ccc4c3)cc2N=C(N)C1` [Compound 1-11-1], for which the concentration for a half-maximal effect (EC50) was 1 to 10 µM at TLR8 (setting [1]) and more than 50 µM at TLR7.

For the compound `CCCN(CCC)C(=O)C1=Cc2c(C)cc(-c3ccc4c(=O)n(CCS(C)(=O)=O)ncc4c3)cc2N=C(N)C1` [Compound 2-2-2], the figures for the EC50 on TLR8 (setting [1]) and on TLR7 were less than 0.1 µM and 10 to 50 µM, respectively.
